ChEMBL document CHEMBL1201862, “PubChem BioAssay data set” (2004)
Several values for one entry are separate records, joined by “and”; a condition that tells them apart may be missing. Equal values may be shown once. Activity calls are given as the source filed them.

Key:
[1] = target: T1, Type-1 angiotensin II receptor (Homo sapiens, UniProt P30556); assay: agonist activity at AGTR1 – cell-based, uHTS hits, selectivity assay for APJ receptor agonist project, dose response (AID 488865); type: functional;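 also: beta-arrestin recruitment to AT1 measured by enzyme fragment complementation luminescence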
T1 sequence (P30556 whole entry): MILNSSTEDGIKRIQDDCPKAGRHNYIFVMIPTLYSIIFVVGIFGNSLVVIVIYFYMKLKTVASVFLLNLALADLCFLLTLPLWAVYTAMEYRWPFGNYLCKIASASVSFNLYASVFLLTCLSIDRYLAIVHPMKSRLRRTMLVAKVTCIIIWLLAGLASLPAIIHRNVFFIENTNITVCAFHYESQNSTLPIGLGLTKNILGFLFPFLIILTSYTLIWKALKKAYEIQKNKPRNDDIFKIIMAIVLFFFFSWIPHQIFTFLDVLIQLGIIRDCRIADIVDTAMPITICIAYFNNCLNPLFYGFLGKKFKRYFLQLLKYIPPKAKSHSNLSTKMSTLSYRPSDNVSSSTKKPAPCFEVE

Prothrombin = Prothrombin (Homo sapiens, UniProt P00734); assay: Thrombin 1536 HTS Dose Response Confirmation. [Related pubchem assays: 1046 (Thrombin 1536 HTS; hits were confirmed in this assay)]; type: functional
Coagulation factor XII = target: T2, Coagulation factor XII (Homo sapiens, UniProt P00748); assay: Factor XIIa Dose Response Confirmation from Single Well HTS. [Related pubchem assays (depositor defined):AID701]; type: functional
T2 sequence (P00748 whole entry): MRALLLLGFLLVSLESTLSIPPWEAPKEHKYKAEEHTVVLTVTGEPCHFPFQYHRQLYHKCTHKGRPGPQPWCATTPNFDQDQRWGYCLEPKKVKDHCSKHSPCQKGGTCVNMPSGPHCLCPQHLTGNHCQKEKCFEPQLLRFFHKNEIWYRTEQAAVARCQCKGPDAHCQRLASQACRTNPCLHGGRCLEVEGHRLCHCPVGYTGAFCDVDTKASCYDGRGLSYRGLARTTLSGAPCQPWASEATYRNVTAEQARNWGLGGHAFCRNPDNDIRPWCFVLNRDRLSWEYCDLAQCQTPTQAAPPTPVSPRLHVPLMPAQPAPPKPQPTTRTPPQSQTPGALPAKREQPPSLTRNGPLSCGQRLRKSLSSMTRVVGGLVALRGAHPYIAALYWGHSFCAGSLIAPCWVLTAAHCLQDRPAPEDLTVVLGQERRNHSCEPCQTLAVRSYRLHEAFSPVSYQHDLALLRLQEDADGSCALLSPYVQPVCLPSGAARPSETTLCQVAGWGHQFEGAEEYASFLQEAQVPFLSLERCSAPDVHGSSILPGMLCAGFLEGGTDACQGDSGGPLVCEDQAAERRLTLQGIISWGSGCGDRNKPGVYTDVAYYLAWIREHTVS

[2] = Luminescence Cell-Based Dose Retest to Confirm Inhibitors of Cancer Stem Cells. [Related pubchem assays (depositor defined):AID2717, AID2721]; type: functional; settings: Homo sapiens
T-cell = assay: loss of vesicle association with mouse CD8+ T cells – mouse 2C CD8+ T cells, flow cytometry, dose response (AID 485284); type: functional
[3] = target: T3, Heat shock factor protein 1 (Mus musculus, UniProt P38532); assay: decrease of HSF1-responsive luciferase luminescence – cell-based, NIH3T3, dose retest, confirmation (AID 2382); type: functional;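 also: NIH3T3 fibroblasts with HSF1-driven luciferase reporter stressed by proteasome inhibitor MG132; luminescence from HSF1-driven luciferase expression after 8 hours of MG132 stress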
T3 sequence (P38532 whole entry): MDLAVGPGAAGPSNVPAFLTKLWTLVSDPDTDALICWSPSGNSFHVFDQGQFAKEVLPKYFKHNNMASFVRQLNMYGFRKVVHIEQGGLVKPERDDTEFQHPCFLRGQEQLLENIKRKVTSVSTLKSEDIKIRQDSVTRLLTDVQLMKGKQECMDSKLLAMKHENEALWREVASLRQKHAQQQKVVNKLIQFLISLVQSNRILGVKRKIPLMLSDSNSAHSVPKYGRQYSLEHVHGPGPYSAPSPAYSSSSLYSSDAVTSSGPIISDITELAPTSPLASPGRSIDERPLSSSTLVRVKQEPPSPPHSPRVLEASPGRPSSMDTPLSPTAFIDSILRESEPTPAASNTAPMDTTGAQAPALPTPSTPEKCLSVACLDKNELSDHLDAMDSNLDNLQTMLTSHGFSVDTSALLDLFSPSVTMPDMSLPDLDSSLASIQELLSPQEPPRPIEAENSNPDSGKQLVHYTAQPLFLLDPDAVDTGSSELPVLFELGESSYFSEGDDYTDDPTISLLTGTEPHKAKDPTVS

[4] = viability of PTEN-deleted HCT116 cells – cell-based, HCT116 PTEN knockout, dose response (AID 1047); type: functional;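 also: HCT116 colon tumor cells with PTEN knocked out; cells exposed to compound for 60 hours before readout; potency for loss of cell viability measured by luminescence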
[5] = viability of HCT116 lacking mutant beta-catenin – cell-based, human colon tumor, dose response (AID 1045); type: functional;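 also: HCT116 colon tumor cells with beta catenin knocked out; cells exposed to compound for 60 hours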
[6] = target: T4, Sphingosine 1-phosphate receptor 4 (Homo sapiens, UniProt O95977); assay: Fluorescence dose response cell-based high throughput screening assay for antagonists of the Sphingosine 1-Phosphate Receptor 4 (S1P4). [Related pubchem assays: 1524 (Confirmation in triplicates.), 1510 (Primary screen.)]; type: functional
T4 sequence (O95977 whole entry): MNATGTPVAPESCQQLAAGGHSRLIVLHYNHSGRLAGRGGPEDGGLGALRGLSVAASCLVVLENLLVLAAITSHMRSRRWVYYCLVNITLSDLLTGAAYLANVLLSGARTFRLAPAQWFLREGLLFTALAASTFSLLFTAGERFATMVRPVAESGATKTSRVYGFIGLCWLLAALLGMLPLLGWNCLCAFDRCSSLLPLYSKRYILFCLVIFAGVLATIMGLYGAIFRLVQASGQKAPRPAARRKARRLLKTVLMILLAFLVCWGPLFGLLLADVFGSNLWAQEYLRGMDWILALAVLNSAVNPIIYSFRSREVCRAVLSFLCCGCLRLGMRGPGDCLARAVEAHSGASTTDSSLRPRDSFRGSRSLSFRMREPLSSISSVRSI

[7] = target: Sphingosine 1-phosphate receptor 1 (Homo sapiens, UniProt P21453); type: functional;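 also: Tango beta-arrestin reporter U2OS cells stimulated with S1P near its EC80; inhibitor potency meaning antagonism of receptor activation by the natural agonist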
[8] = THP-1 cell cytotoxicity, dose response, cytotoxicity control for non-replicating M. tuberculosis project (AID 489025); type: functional
Beta-galactosidase = Beta-galactosidase (Escherichia coli, UniProt Q8VNN2); assay: detection-enzyme interference by beta-gal modulators – biochemical, E. coli enzyme, set 3, artefact control for CCR6 antagonist project, dose response (AID 504712); type: functional
[9] = Vero E6 cell cytotoxicity, dose response, cytotoxicity control for non-replicating M. tuberculosis project, secondary assay (AID 492998); type: functional, VeroE6; settings: Vero C1008
[10] = target: DNA damage-inducible transcript 3 protein (Mus musculus, UniProt P35639); type: functional, Cricetulus griseus
X-box-binding protein 1 = X-box-binding protein 1 (Homo sapiens, UniProt P17861); type: functional, Cricetulus griseus;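 also: confirmatory dose-response counter-screen serving a CHOP assay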
cells = type: functional
HEK293 = assay: EBV LMP1 TES2 canonical NF-kB signalling blockers – cell-based, HEK293, luciferase, cherry-pick, dose response (AID 588343); type: functional; settings: Homo sapiens
Ion channel NompC = Ion channel NompC (Danio rerio, UniProt Q7T1G6); assay: Dose response cell-based high-throughput screening assay for agonists of the transient receptor potential channel N1 (TRPN1). [Related pubchem assays (depositor defined):AID1424, AID1448]; type: functional
Mucolipin-3 = target: T5, Mucolipin-3 (Homo sapiens, UniProt Q8TDD5); assay: Fluorescence counterscreen assay for […] agonists: dose response cell-based high-throughput screening assay to identify agonists of the transient receptor potential channel ML3 (TRPML3). [Related pubchem assays: 1424, 1448 ]; type: functional
T5 sequence (Q8TDD5 whole entry): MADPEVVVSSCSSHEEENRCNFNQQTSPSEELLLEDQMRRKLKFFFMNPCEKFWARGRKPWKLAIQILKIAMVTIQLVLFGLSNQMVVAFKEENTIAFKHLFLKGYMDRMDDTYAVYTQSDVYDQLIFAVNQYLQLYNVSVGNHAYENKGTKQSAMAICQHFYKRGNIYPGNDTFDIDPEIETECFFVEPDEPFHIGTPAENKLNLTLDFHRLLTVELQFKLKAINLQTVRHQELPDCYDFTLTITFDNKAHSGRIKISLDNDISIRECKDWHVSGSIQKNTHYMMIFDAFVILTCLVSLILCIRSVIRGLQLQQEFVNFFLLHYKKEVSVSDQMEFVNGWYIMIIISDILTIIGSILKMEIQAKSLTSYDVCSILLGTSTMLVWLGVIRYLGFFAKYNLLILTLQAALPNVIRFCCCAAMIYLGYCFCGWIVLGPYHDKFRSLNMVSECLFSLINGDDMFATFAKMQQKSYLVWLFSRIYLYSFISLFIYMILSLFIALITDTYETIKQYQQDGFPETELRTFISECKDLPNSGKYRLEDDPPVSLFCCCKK

[11] = target: T4, Sphingosine 1-phosphate receptor 4; assay: Late-stage fluorescence dose response cell-based assay to identify agonists of the Sphingosine 1-Phosphate Receptor 4 (S1P4): purchased compounds EC50. [Related pubchem assays (depositor defined):AID1509, AID1523, AID1563, AID1686, AID1701, AID1801]; type: functional
[12] = target: Glyceraldehyde-3-phosphate dehydrogenase (Homo sapiens, UniProt P04406)
[13] = target: T6, Alkaline phosphatase, tissue-nonspecific isozyme (Homo sapiens, UniProt P05186); assay: potency against alkaline phosphatase TNAP – biochemical, luminescent, dose response, SAR follow-up (AID 1056)
T6 sequence (P05186 whole entry): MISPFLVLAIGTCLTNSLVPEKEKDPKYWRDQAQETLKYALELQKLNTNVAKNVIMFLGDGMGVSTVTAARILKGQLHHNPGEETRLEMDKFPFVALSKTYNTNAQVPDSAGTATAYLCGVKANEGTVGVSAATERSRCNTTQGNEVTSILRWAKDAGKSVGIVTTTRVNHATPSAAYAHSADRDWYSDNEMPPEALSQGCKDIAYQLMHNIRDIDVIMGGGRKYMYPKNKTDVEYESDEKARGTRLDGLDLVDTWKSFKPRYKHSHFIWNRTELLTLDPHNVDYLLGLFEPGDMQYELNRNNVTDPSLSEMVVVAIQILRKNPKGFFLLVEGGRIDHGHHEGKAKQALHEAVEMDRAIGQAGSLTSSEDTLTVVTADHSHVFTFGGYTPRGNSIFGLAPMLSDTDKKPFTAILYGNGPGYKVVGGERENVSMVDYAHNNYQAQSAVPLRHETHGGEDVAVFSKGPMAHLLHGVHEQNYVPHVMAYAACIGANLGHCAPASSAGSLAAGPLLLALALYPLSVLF

DLD-1 [14] = assay: KLF5 protein lowering by immunoblot – western blot, chemiluminescence, DLD-1 cells, titration, orthogonal assay for KLF5 inhibitor project, late-stage follow-up (AID 485336); type: functional, cell-based; settings: Homo sapiens
[15] = luciferase reporter signal suppression in cells – H4 neuroglioma cells, luminescence, dose response (AID 1990); type: functional, cell-based
[16] = Luminescence Cell-Based Dose Response HTS to Identify Inhibitors of 5'UTR Stem-Loop Driven Prion Protein mRNA Translation in H4 Neuroglioblastoma Cells. [Related pubchem assays: 1827 (Project Summary), 1813 (Primary HTS)]; type: functional
Vero [17] = assay: mammalian cell viability reduction – secondary assay, cytotoxicity control for West Nile virus antiviral project, dose response (AID 1650); type: functional; settings: Chlorocebus sabaeus
[18] = alpha-synuclein stem-loop luciferase translation blockers – H4 neuroglioma cells, luminescence, confirmation (AID 1988); type: functional, cell-based
[19] = Luminescence-based counterscreen assay for KLF5 inhibitors: dose response cell-based high throughput screening assay to identify cytotoxic compounds using the IEC-6 intestinal epithelial cell line. [Related pubchem assays: 1700 (Primary screen.), 1834 (Confirmation screen.), 1858 (Summary AID.), 1905 (Counterscreen.)]; type: functional
DLD-1 [20] = assay: DLD-1 cell viability reduction – luminescence, round 1, cytotoxicity control for KLF5 inhibitor project, late-stage follow-up (AID 485338); type: functional, cell-based; settings: Homo sapiens
Vero [21] = assay: cells; type: functional, cell-based; settings: Chlorocebus sabaeus
Vero [22] = assay: cells; type: functional; settings: Chlorocebus sabaeus

Chain of Sphingosine 1-phosphate receptor 1 (P21453 whole entry): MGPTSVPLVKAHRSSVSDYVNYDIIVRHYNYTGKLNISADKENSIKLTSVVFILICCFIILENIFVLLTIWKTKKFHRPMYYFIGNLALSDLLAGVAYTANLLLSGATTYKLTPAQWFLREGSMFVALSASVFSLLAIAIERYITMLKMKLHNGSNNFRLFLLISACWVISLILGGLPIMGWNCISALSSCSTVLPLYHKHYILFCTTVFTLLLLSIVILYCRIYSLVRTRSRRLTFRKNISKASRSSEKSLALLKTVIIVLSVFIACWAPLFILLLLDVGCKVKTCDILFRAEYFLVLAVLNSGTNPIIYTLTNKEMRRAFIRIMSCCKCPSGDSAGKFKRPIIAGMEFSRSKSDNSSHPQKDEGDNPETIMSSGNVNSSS
Chain of Ion channel NompC (Q7T1G6 whole entry): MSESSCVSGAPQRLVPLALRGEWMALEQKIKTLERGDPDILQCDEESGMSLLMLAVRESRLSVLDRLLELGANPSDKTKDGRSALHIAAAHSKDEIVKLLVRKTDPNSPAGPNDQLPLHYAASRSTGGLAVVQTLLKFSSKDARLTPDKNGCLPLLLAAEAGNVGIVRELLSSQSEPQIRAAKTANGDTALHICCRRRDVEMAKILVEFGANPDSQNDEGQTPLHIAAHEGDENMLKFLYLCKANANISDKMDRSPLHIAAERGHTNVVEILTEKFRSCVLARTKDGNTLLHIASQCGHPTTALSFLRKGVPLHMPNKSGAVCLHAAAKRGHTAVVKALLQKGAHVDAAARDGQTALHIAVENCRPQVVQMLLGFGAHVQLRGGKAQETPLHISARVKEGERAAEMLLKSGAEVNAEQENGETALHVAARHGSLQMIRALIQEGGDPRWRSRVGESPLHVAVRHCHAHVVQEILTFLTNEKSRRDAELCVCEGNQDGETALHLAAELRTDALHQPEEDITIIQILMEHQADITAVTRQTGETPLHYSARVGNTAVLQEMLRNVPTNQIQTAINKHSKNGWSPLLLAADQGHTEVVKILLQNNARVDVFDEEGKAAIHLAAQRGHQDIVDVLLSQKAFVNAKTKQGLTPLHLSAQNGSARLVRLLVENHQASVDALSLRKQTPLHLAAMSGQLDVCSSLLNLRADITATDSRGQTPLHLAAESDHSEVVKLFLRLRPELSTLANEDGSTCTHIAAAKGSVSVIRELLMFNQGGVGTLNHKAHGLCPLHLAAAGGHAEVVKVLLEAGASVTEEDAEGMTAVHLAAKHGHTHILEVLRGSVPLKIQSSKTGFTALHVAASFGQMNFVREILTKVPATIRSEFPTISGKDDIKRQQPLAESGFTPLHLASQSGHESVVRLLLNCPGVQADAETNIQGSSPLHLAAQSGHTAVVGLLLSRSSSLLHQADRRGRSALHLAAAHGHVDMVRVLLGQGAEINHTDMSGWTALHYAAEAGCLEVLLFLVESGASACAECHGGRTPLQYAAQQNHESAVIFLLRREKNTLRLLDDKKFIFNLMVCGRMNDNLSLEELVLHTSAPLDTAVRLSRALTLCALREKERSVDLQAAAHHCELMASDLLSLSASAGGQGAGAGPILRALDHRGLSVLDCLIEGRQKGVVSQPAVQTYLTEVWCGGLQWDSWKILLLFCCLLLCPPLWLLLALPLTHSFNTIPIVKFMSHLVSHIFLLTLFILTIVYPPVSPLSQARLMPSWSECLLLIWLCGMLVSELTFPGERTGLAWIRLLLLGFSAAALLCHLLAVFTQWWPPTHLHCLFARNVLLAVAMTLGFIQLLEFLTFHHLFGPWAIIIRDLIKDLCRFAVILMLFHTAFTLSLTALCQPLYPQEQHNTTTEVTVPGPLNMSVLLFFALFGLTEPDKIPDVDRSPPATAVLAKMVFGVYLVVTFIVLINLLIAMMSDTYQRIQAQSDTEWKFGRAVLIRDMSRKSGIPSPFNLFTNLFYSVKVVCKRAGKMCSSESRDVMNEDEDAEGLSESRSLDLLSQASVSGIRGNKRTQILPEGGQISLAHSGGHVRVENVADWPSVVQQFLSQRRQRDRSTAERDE
Chain of Glyceraldehyde-3-phosphate dehydrogenase (P04406 whole entry): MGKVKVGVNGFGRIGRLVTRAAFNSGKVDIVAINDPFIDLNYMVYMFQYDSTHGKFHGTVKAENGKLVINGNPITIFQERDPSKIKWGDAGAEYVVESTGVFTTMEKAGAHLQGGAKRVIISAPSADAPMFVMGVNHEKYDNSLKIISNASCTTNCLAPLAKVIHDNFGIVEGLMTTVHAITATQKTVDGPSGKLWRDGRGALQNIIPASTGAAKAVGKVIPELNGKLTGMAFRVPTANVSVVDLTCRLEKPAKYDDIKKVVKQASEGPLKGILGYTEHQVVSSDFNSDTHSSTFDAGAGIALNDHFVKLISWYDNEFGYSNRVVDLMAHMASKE
Chain of DNA damage-inducible transcript 3 protein (P35639 whole entry): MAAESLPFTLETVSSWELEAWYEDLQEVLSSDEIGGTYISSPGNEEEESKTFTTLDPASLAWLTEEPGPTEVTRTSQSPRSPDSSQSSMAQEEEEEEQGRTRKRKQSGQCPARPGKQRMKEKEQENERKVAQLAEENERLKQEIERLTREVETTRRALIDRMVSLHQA
Chain of X-box-binding protein 1 (P17861 whole entry): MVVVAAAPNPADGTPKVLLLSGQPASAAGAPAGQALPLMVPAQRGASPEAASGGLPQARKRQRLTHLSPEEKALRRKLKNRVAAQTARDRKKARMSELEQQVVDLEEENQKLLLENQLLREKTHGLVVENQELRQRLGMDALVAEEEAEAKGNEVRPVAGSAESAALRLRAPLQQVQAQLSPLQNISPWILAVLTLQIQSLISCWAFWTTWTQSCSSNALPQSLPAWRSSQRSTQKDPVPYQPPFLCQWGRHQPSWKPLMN
Chain of Beta-galactosidase (Q8VNN2 whole entry): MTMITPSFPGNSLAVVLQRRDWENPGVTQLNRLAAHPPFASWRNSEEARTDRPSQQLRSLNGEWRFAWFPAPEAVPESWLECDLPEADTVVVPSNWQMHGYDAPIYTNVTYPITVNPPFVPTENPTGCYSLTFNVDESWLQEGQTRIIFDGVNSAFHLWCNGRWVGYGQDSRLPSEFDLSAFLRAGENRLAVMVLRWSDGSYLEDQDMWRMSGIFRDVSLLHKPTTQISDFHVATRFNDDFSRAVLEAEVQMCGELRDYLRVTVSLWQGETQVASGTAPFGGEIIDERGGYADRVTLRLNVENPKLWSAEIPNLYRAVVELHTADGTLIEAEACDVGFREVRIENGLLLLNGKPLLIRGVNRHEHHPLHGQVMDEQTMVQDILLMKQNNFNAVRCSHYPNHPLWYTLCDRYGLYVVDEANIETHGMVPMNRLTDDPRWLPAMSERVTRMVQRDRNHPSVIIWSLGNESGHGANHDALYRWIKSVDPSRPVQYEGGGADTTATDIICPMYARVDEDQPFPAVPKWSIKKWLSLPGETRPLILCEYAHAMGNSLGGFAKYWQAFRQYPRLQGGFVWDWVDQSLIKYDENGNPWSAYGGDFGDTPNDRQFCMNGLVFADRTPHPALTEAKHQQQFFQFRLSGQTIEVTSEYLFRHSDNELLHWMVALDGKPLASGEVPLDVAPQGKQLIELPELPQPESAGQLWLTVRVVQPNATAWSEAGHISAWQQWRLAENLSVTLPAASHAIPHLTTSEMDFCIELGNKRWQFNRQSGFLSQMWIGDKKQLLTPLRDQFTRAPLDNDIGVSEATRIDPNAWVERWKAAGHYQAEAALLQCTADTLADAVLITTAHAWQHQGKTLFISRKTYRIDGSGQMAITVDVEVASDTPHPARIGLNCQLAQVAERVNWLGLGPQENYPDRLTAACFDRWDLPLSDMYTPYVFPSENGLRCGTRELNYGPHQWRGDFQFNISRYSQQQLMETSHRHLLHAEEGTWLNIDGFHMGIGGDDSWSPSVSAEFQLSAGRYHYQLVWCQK

CCOc1cc2[nH]c(=S)n(CC3CCCN3CC)c(=O)c2cc1OCC (stereo unspecified)
EC50 [1]: > 100 µM (inactive)

COc1cccc(-c2nc3ccccc3c(=O)o2)c1
IC50 (Prothrombin): 6.94 µM (active) | IC50 (Coagulation factor XII): > 50 µM (inconclusive)

CC1(C)Cc2c(C#N)c(NC3CCCCC3)nc(-c3ccco3)c2CO1
AC50 [2]: 5.72 µM (active) | EC50 (T-cell): 6.98 µM (active)

O=C1c2cccc3c([N+](=O)[O-])ccc(c23)C(=O)N1c1ccccn1
EC50 [3]: 12.8 µM (active) | EC50 [4]: 4.17 µM (active) | EC50 [5]: 2.38 µM (active) | IC50 [6]: 0.75 µM (active) | IC50 [7]: 2.29 µM (active) | CC50 [8]: 6.16 µM (active) | IC50 (Beta-galactosidase): > 66.6 µM (inactive) | CC50 [9]: 12.3 µM (active) | Absolute IC50 (CHOP) [10]: 10 µM | Absolute IC50 (XBP1) (X-box-binding protein 1): 10 µM | IC50 (cells): 20.3 µM (active) | AC50 (HEK293): 5.7 µM (active)

CCOC(=O)Cn1c(=O)oc2cc(S(=O)(=O)Nc3ccc(F)cc3)ccc21
EC50 (Ion channel NompC): > 29.9 µM (inactive) | EC50 (Mucolipin-3): > 29.9 µM (not active)

Cc1ccc(OCC(=O)Nc2cc(Cl)cc(Cl)c2)c([N+](=O)[O-])n1
EC50 [11]: 3.6 µM (active) and > 50 µM (inactive)

O=C(O)c1ccc(-c2ccccc2)[nH]1
IC50 [12]: > 100 µM (not active) | IC50 [13]: > 100 µM (inactive)

C[C@@H]1O[C@@H](O[C@H]2C[C@@H](O)[C@]3(CO)[C@H]4[C@H](O)C[C@]5(C)[C@@H](C6=CC(=O)OC6)CC[C@]5(O)[C@@H]4CC[C@]3(O)C2)[C@H](O)[C@H](O)[C@H]1O [OUABAIN]
IC50 (DLD-1 [14]): 0.0297 µM (active) | EC50 [15]: < 0.1 µM (active) | EC50 [16]: < 0.1 µM (active) | CC50 (Vero [17]): 0.16 µM (active) | EC50 [18]: < 0.1 µM (active) | IC50 [19]: > 39.8 µM (not active) | IC50 (DLD-1 [20]): 0.0464 µM (active) | IC50 (Vero [21]): < 0.05 µM (active) | CC50 (Vero [22]): 0.13 µM (active)
